In patent US20050271637A1, “BMP-2 estrogen responsive element and methods of using the same” (priority 2002, published 2005):
“Also recorded” adds a separate entry of the source.

Columns and labels:
mouse BMP-2 mRNA [1] = experiment: Semi-quantitative RT-PCR of BMP-2 mRNA in MSCs from OVX mice; format: cell-based; conditions: for BMP-2 mRNA expression, effect of the substance alone: E2 100 nM, ICI 10 μM, tamoxifen 1.0 μM, raloxifene 100 nM
Protocol: (§1) Two months old Swiss-Webster female mice (ICR) were OVX in accordance with mandated standards of humane care, and the animals were maintained in accordance with the NIH Guide for the Care and Use of Laboratory Animals. After 5 months post-surgery, bone marrow was isolated from femurs and tibias, and the MSCs were cultured as described previously (Gazit et al. 1999 and Zhou et al. 2001). The bone marrow cells were maintained in DMEM (Phenol red free, 1.0 g/L glucose, Biological Industries, Israel) with 15% FBS (Charcoal stripped, heat-inactivated), 100 units/ml penicillin, 100 μg/ml streptomycin, and 2 mM glutamine. At day 4, the cultures were supplemented with 50 μg/ml ascorbic acid, 10 mM β-glycerophosphate, and 10 nM dexamethasone. From day 10, the cells were cultured in DMEM with 2% charcoal stripped (CS)-FBS without osteogenic supplements. […] RNA then was isolated at day 12. […] Mouse C3H10T1/2 cells were cultivated in DMEM (Sigma and Biological Industries) with 10% FBS, 100 units/ml penicillin, 100 μg/ml streptomycin, and 2 mM glutamine.
RNA was isolated using TRizol Reagent (Life Technologies, USA), according to the manufacturer's protocol. Semi-quantitative RT-PCR was performed as described previously (Zhou et al. 2001). Mouse BMP-2 (505 bp) (Zhou et al. 2001), internal control RPL19 (190 bp) (Orly et al. 1994) and c-myc (550 bp) (Goswami et al. 1997) primers were described previously. The PCR conditions used for mouse BMP-2 RT-PCR were 30 cycles of 94 C for 1 min, 55 C for 1 min and 72 for 2 min in an MJ MiniCycler (MJ Research, USA). RT-PCR products of mouse BMP-2 were cloned into the pGEM-T Easy vector (A1360, Promega), and the pGEM-T-mouse BMP-2 vectors were sequenced by a T7 sequence sequencing kit (US70770, USB, Cleveland, USA) according to the manufacturer's protocols. DNA sequence analysis confirmed that mouse BMP-2 had been amplified.
All experiments were performed three to five times independently. Data re presented as the mean values±the standard error of the mean. The semi-quantitative RT-PCR and real-time RT-PCR were performed 3 times in independent experiments using total RNA that was isolated from MSCs derived from 3-6 animals each time. Quantitative data were analyzed using either the non-parameteric Mann-Whitney test or the ANOVA test.

mouse BMP-2 mRNA [2] = experiment: Real-time RT-PCR of BMP-2 mRNA in bone marrow MSCs from OVX mice; format: cell-based; conditions: 100 nM E2, 24 hr
Protocol: Two months old Swiss-Webster female mice (ICR) were OVX in accordance with mandated standards of humane care, and the animals were maintained in accordance with the NIH Guide for the Care and Use of Laboratory Animals. After 5 months post-surgery, bone marrow was isolated from femurs and tibias, and the MSCs were cultured as described previously (Gazit et al. 1999 and Zhou et al. 2001). The bone marrow cells were maintained in DMEM (Phenol red free, 1.0 g/L glucose, Biological Industries, Israel) with 15% FBS (Charcoal stripped, heat-inactivated), 100 units/ml penicillin, 100 μg/ml streptomycin, and 2 mM glutamine. […]
(§2) RNA was isolated using TRizol Reagent (Life Technologies, USA), according to the manufacturer's protocol. Semi-quantitative RT-PCR was performed as described previously (Zhou et al. 2001). […]
Real-Time PCR was performed using a Roche LightCycler according to the manufacturer's protocol (Roche Molecular Biochemicals, USA). […] Fluoresence was measured at 82° C. for 5 s. To quantify the copy number of the mouse BMP-2 mRNA in MSCs, pGEM-T-mouse BMP-2 plasmids ([…]) were used in standard curve.
All experiments were performed three to five times independently. […] The semi-quantitative RT-PCR and real-time RT-PCR were performed 3 times in independent experiments using total RNA that was isolated from MSCs derived from 3-6 animals each time. […]

c-myc mRNA = experiment: Semi-quantitative RT-PCR of c-myc mRNA in MSCs from OVX mice; format: cell-based, mouse; conditions: 5.0 μM cycloheximide
Protocol: as §1, §2

human ERβ = human ERβ (Homo sapiens, UniProt Q92731); experiment: Mouse BMP-2 promoter-luciferase assay in C3H10T1/2 cells co-transfected with human ERβ; conditions: 24 hr; E2 different doses or 10 nM, raloxifene 100 nM, tamoxifen 1.0 μM, genistein 100 nM
Sequence of human ERβ (Q92731 46-530 limits assumed): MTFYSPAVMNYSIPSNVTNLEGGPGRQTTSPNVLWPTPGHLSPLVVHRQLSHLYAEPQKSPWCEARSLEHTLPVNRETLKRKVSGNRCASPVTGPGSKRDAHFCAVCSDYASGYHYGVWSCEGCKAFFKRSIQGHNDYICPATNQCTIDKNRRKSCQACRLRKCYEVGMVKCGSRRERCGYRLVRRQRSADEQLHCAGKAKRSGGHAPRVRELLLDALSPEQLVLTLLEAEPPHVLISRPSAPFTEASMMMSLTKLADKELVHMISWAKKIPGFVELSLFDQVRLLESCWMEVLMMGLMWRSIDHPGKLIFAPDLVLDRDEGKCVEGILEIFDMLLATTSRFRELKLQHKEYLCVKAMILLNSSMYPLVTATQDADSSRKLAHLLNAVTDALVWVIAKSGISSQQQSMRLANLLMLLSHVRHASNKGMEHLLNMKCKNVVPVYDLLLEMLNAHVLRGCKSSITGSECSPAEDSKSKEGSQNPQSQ

## C[C@]12CC[C@@H]3c4ccc(O)cc4C[C@@H](CCCCCCCCC[S+]([O-])CCCC(F)(F)C(F)(F)F)[C@H]3[C@@H]1CC[C@@H]2O (stereo partly drawn) [ICI-182,780]
Mouse BMP-2 mRNA [1]; 24 hr, listed as ICI
  BMP-2 mRNA expression, effect of the substance alone: had no effect; also recorded: failed to activate
Mouse BMP-2 mRNA [1]; ICI 10 μM with E2 100 nM, 24 hr, listed as ICI
  effect on up-regulation of BMP-2 mRNA expression by E2: blocked; also recorded: inhibited

## C[C@]12CC[C@@H]3c4ccc(O)cc4CC[C@H]3[C@@H]1CC[C@@H]2O [E2, estradiol]
Mouse BMP-2 mRNA [2]; versus untreated
  increase of mouse BMP-2 mRNA levels: 2.4 fold
Mouse BMP-2 mRNA [2]; in 2 μg of total RNA, untreated 570±81 copies, p<0.05, ANOVA
  mouse BMP-2 mRNA levels: 1337±177 copies

## C[C@@H]1C[C@@H]([C@H](O)CC2CC(=O)NC(=O)C2)C(=O)[C@@H](C)C1 [cycloheximide]
Mouse BMP-2 mRNA [1]; 5.0 μM cycloheximide added 45 min before 100 nM E2, RNA 4 hr after E2
  effect on up-regulation of BMP-2 mRNA by E2: did not block
c-myc mRNA
  c-myc mRNA levels: super-induction; also recorded: superinduction

## O=C(c1ccc(OCCN2CCCCC2)cc1)c1c(-c2ccc(O)cc2)sc2cc(O)ccc12 [raloxifene]
Human ERβ
  full-length mouse BMP-2 promoter (−2712) activity via ERβ: not via ERβ
Mouse BMP-2 mRNA [1]; 24 hr
  BMP-2 mRNA expression, effect of the substance alone: failed to activate

## CC/C(=C(\c1ccccc1)c1ccc(OCCN(C)C)cc1)c1ccccc1 [tamoxifen]
Mouse BMP-2 mRNA [1]; 24 hr
  BMP-2 mRNA expression, effect of the substance alone: failed to activate
